Measured values from patent US9856264B2, “Isoquinolinesulfonyl derivative as RHO kinase inhibitor” (MEDSHINE DISCOVERY INC., priority 2014, dated 2018).

Molecular target: ROCK kinase
Assay: In vitro ROCK kinase inhibition activity evaluation (33P-ATP filter-binding)
Type: biochemical
Parameters: key to ROCK inhibition activity: 1 μM ≦ + < 5 μM; 0.1 μM ≦ ++ < 1 μM; +++ < 0.1 μM; −− N/A
Settings: 1 nM ROCK kinase, 20 μM Long S6 Kinase substrate peptide, 2 h room temperature
Description: Biological Activity Experiment: In Vitro ROCK Kinase Inhibition Activity Evaluation
Experimental Objective: Test ROCK Inhibition IC50 Value of Invented Compounds
Buffer solution: 20 mM Hepes (pH 7.5), 10 mM MgCl2, 1 mM EGTA, 0.02% Brij35, 0.02 mg/ml BSA, 0.1 mM Na3VO4, 2 mM DTT, 1% DMSO
To a freshly prepared buffer solution was added ROCK substrate Long S6 Kinase substrate peptide, with concentration at 20 μM. 1 nM ROCK kinase was then added, and well stirred. A series of DMSO solution (starting from 10 μM, dilution factor 3) of testing article was added using Echo550. The mixture was incubated for 20 min at room temperature, then was added ^33P-ATP (radioactive intensity 10 μCi/μL) to initiate reaction and further reacted for 2 h at room temperature. The mixture was filtered through P81 ion exchange paper (Whatman #3698-915), and washed by 0.75% phosphoric acid. The intensity of radiation was measured by Filter-Binding method.
The inhibition activity of the testing articles were measured by comparing the residue kinase activity to blank substrate (pure DMSO). Using Prism software ((GraphPad Software, San Diego Calif., USA) to calculate IC50 and curve.

Compound | IC50 | ROCK inhibition activity
O=S(=O)(c1cccc2cnccc12)N1CC[C@@H]2NCC[C@@H]21 (stereo in doubt) [Example 1, 5-((hexahydropyrrolo[3,2-b]pyrrol-1(2H)-yl)sulfonyl)isoquinoline] | 100 to 1000 nM | 
O=S(=O)(c1cccc2cnccc12)N1C[C@@H]2CCN[C@@H]2C1 (stereo in doubt) [Example 2, 5-((hexahydropyrrolo[3,4-b]pyrrol-5(1H)-yl)sulfonyl)isoquinoline] | 100 to 1000 nM | 
O=S(=O)(c1cccc2cnccc12)N1C[C@H]2CCCN[C@H]2C1 (stereo in doubt) [Example 3, 5-((hexahydro-1H-pyrrolo[3,4-b]pyridin-6(2H)-yl)sulfonyl)isoquinoline] | 100 to 1000 nM | 
O=S(=O)(c1cccc2cncc(Cl)c12)N1CC[C@@H]2NCC[C@@H]21 (stereo in doubt) [Example 16, 4-chloro-5-((hexahydropyrrolo[3,2-b]pyrrol-1(2H)-yl)sulfonyl)isoquinoline] | 100 to 1000 nM | 
O=S(=O)(c1cccc2cncc(Cl)c12)N1C[C@@H]2CCN[C@@H]2C1 (stereo in doubt) [Example 17, 4-chloro-5-((hexahydropyrrolo[3,4-b]pyrrol-5 (1H)-yl)sulfonyl)isoquinoline] | 100 to 1000 nM | 
O=S(=O)(c1cccc2cncc(Cl)c12)N1C[C@H]2CCCN[C@H]2C1 (stereo in doubt) [Example 18, 4-chloro-5-((hexahydro-1H-pyrrolo[3,4-b]pyridin-6(2H)-yl)sulfonyl)isoquinoline] | 100 to 1000 nM | 
O=S(=O)(c1cccc2cncc(Cl)c12)N1C[C@H]2CN[C@H]2C1 (stereo in doubt) [Example 19, 5-(3,6-diazabicyclo[3.2.0]heptan-3-ylsulfonyl)-4-chloroisoquinoline] | < 100 nM | 
O=S(=O)(c1cccc2cncc(F)c12)N1CC[C@@H]2NCC[C@@H]21 (stereo in doubt) [Example 24, 4-fluoro-5-((hexahydropyrrolo[3,2-b]pyrrol-1(2H)-yl)sulfonyl)isoquinoline] | 1000 to 5000 nM | 
O=S(=O)(c1cccc2cncc(F)c12)N1C[C@H]2CCCN[C@H]2C1 (stereo in doubt) [Example 26, 4-fluoro-5-((hexahydro-1H-pyrrolo[3,4-b]pyridin-6(2H)-yl)sulfonyl)isoquinoline] | 100 to 1000 nM | 
O=S(=O)(c1cccc2cncc(F)c12)N1C[C@H]2CN[C@H]2C1 (stereo in doubt) [Example 27, 5-(3,6-diazabicyclo[3.2.0]heptan-3-ylsulfonyl)-4-fluoroisoquinoline] | 100 to 1000 nM | 
O=S(=O)(c1cccc2cncc(C(F)F)c12)N1CC[C@@H]2NCC[C@@H]21 (stereo in doubt) [Example 31, 4-(difluoromethyl)-5-((hexahydropyrrolo[3,2-b]pyrrol-1(2H)-yl)sulfonyl)isoquinoline] |  | −−
O=S(=O)(c1cccc2cncc(C(F)F)c12)N1C[C@@H]2CCN[C@@H]2C1 (stereo in doubt) [Example 32, 4-(difluoromethyl)-5-((hexahydropyrrolo[3,4-b]pyrrol-5(1H)-yl)sulfonyl)isoquinoline] |  | −−
O=S(=O)(c1cccc2cncc(C(F)F)c12)N1C[C@H]2CCCN[C@H]2C1 (stereo in doubt) [Example 33, 4-(difluoromethyl)-5-((hexahydro-1H-pyrrolo[3,4-b]pyridin-6(2H)-yl)sulfonyl)isoquinoline] |  | −−
O=S(=O)(c1cccc2cncc(C(F)F)c12)N1C[C@H]2CN[C@H]2C1 (stereo in doubt) [Example 34, 5-(3,6-diazabicyclo[3.2.0]heptan-3-ylsulfonyl)-4-(difluoromethyl)isoquinoline] |  | −−
Cc1cncc2cccc(S(=O)(=O)N3CC[C@@H]4NCC[C@@H]43)c12 (stereo in doubt) [Example 37, 5-((hexahydropyrrolo[3,2-b]pyrrol-1(2H)-yl)sulfonyl)-4-methylisoquinoline] | 100 to 1000 nM | 
